# From patent US12509447B2, “Small molecule compound” (Technoderma Medicines Pte Ltd, priority 2019, dated 2025)
# Assays:
# Tyk2 = Tyk2 (Homo sapiens, UniProt P29597); experiment: Inhibition of JAK kinase activity, EZ Reader microfluidic phosphorylation of peptide substrate: Tyk2; format: biochemical; settings: Tyk2 kinase 1 nM; highest final concentration 10 μM, 1:3 serial dilution, 8 points, duplicates
# Text: (§1) EZ Reader available from PerkinElmer can be used for detecting the phosphorylation of polypeptide substrates catalyzed by kinases. This device is based on microfluidic separation technology, and can directly detect fluorescence labeled substrates and products. The separation step is achieved in a microfluidic chip by controlling the pressure and electric field intensity. In a kinase experiment, the product conversion rate is generally controlled at 20-30%. This biological assay method is used for identifying the inhibitory effect of the compounds on JAK.
# (§2) The compound powder was dissolved in DMSO, sealed and stored in a refrigerator at −20° C. The in-house compound Ref1 was used as a positive control for testing of JAK1, JAK2 and Tyk2, and Ref2 was used as a positive control for testing of JAK3.
# (§3) • S2.1. 1M HEPES buffer: 0.5M HEPES free acid and 0.5M HEPES sodium salt are weighed, added into ultrapure water for dissolution, brought to a desired volume, filtered and stored in a refrigerator at 4° C. • S2.2. 40 mM ATP solution: dissolved in a 50 mM HEPES buffer solution, prepared into 40 mM, aliquoted, and cryopreserved in a refrigerator at −20° C. • S2.3. 0.5% Tween 20: 100% Tween 20 was diluted with ultrapure water, and stored in a refrigerator at 4° C. • S2.4. 35% bovine serum albumin: a 35% bovine serum albumin solution is prepared in ultrapure water, aliquoted, and stored in a refrigerator at −20° C. • S2.5. 1M dithiothreitol solution: dithiothreitol is formulated into a 1M solution with ultrapure water, aliquoted, and stored in a refrigerator at −20° C. • S2.6. 0.5 mM Jaktide Peptide substrate solution: it is dissolved in 50 mM HEPES to 0.5 mM, aliquoted, and stored in a refrigerator at −20° C. • S2.7. 0.5 mM IRStide Peptide substrate solution: it is dissolved in 50 mM HEPES to 0.5 mM, aliquoted, and stored in a refrigerator at −20° C. • S2.8. Assay Buffer: 20 mM HEPES buffer, pH 7.4, 10 mM magnesium chloride, 0.01% bovine serum albumin BSA, 0.0005% Tween-20, and a 1 mM dithiothreitol solution. • S2.9. Stop Buffer: 180 mM HEPES buffer, 20 mM ethylenediamine tetraacetic acid (EDTA), and 0.2% Coating Reagent 3. • S2.10. Separation Buffer: 100 mM HEPES buffer, 10 mM EDTA, 0.0005% Tween 20, 0.1% Coating Reagent 3, and 1% dimethyl sulfoxide. 3. Experimental Procedures • S3.1. Preparation of compound plate
# (§4) The compound is dissolved in dimethyl sulfoxide to 10 mM, a certain volume is taken and diluted to 0.6 mM, 10 μl of the diluted 0.6 mM solution is taken and added into a 384 microplate or 1:3 serial dilution, with a total of 8 concentration points. • S3.2. Compound layout
# (§5) • positive control (HPE1): Ref1, final concentration: 10 μM • positive control (HPE1): Ref2, final concentration: 10 μM • negative control (ZPE): DMSO, with a final concentration of 1.6% • Compound: the highest final concentration at 10 μM, 1:3 serial dilution, with 8 concentration points and in duplicates. 4. Experimental operation steps • S4.1. the experimental plate was added with 250 nl of the compound per well with ECHO, and centrifuged at 1,000 rpm for 1 minute; • S4.2. the precipitate was added with 5 μl of the experimental buffer, and shaken for several seconds to fully dissolve the compound; • S4.3. the solution was added with 5 μl of a 3× substrate solution, as well as 5 μl of a 3× kinase solution, and centrifuged at 800 rpm for 1 minute; • S4.4. The final concentrations of JAK1, JAK2, JAK3 and Tyk2 kinases in the reaction system are 20, 1, 1 and 1 nM, respectively. • S4.5. the reaction system is incubated at room temperature, wherein the incubation time of each kinase is different, and there are differences in incubation time of different batches of kinases. • S4.6. When the reaction reaches 20%-30%, the reaction system is added with 15 μl of the stop buffer to terminate the reaction, and centrifuged at 1,000 rpm for 2 minutes. • S4.7. The precipitate was placed onto a EZ Reader for plate reading. • S4.8. […]
# JAK1 = JAK1 (Homo sapiens, UniProt P23458); experiment: Inhibition of JAK kinase activity, EZ Reader microfluidic phosphorylation of peptide substrate: JAK1; format: biochemical; settings: JAK1 kinase 20 nM; highest final concentration 10 μM, 1:3 serial dilution, 8 points, duplicates
# JAK1, sequence (P23458 whole entry): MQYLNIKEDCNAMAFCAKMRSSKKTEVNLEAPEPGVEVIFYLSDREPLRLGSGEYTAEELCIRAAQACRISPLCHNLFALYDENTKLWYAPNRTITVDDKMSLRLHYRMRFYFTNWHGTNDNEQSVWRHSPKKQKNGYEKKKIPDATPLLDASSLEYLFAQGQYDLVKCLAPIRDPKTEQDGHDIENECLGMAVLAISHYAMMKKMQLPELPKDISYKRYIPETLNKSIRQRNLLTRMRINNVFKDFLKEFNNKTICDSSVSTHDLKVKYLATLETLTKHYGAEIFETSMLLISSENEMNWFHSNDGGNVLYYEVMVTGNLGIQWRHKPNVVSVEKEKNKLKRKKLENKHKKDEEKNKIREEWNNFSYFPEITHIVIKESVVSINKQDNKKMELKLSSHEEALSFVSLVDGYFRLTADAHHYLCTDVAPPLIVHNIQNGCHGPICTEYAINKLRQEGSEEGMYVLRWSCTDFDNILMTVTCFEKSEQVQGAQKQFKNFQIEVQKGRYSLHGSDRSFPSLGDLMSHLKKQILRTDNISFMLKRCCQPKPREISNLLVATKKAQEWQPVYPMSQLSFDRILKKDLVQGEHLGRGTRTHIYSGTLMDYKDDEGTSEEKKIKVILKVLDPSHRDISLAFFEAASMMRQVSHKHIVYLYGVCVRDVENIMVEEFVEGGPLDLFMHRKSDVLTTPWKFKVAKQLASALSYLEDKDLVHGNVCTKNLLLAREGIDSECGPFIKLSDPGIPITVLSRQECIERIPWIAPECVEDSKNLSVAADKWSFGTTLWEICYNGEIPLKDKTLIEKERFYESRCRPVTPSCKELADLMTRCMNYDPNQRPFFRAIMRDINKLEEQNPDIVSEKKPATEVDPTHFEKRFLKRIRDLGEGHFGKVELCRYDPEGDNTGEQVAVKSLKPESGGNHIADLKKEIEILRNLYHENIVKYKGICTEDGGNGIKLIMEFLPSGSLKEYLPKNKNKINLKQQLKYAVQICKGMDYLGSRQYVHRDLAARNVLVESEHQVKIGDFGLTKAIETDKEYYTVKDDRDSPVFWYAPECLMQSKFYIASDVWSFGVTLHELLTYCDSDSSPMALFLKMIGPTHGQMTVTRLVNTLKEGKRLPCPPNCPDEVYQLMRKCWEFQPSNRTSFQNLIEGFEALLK
# Text: as §1, §2, §3, §4, §5
# Tyk2, sequence (P29597 whole entry): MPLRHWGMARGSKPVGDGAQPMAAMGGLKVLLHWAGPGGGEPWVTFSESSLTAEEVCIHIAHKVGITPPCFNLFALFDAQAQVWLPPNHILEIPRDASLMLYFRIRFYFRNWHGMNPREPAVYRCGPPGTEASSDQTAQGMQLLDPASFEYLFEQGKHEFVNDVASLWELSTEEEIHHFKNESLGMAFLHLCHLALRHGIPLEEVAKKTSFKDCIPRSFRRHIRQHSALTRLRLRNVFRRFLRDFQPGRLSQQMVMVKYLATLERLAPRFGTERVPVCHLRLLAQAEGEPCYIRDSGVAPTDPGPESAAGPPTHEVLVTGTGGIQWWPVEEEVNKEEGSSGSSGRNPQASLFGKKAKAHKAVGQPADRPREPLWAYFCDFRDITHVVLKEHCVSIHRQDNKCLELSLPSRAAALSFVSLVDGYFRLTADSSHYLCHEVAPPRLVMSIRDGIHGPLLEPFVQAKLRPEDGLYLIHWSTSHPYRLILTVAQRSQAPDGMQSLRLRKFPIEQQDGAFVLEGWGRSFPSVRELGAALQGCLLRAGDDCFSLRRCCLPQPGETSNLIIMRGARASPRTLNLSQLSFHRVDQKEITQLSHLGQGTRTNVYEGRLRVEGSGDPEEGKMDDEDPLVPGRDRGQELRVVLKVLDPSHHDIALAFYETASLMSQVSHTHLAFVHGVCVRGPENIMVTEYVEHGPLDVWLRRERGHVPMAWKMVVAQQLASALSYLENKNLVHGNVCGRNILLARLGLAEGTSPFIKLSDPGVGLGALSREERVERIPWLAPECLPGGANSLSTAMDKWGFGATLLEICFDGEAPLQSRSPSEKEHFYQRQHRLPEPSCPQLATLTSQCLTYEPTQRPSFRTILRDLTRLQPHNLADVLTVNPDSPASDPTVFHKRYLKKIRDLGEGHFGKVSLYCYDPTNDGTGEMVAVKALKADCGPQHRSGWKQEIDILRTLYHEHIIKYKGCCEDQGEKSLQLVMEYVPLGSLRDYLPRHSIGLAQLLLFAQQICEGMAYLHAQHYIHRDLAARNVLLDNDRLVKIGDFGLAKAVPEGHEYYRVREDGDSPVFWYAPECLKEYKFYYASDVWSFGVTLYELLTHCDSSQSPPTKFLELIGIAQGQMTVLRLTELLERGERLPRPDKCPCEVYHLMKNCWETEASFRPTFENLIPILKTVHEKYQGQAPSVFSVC
SMILES,IC50 (Tyk2) [µM],IC50 (JAK1) [µM]
"COCC(=O)N1CC(CC#N)(n2ccc(-c3ccnc(Nc4cnn(C)c4)n3)c2)C1 [TDM-180769, 2-(1-(2-methoxyacetyl)-3-(3-(2-((1-methyl-1H-pyrazol-4-yl)amino)pyrimidin-4-yl)-1H-pyrrol-1-yl)azetidin-3-yl)acetonitrile]",1 to 10,1 to 10
Cn1cc(Nc2nccc(-c3ccn(C4(CC#N)CN(C(=O)CO)C4)c3)n2)cn1 [TDM-180786],1 to 10,1 to 10
"Cn1cc(Nc2nccc(-c3ccn(C4(CC#N)CN(C(=O)C5CC5(F)F)C4)n3)n2)cn1 (stereo not drawn) [TDM-180859, 2-(1-(2,2-difluorcyclopropanecarbonyl)-3-(3-(2-((1-methyl-1H-pyrazol-4-yl)amino)pyrimidin-4-yl)-1H-pyrazol-1-yl)azetidin-3-yl)acetonitrile]",0.1 to 1,0.1 to 1
"Cn1cc(Nc2nccc(-c3ccn(C4(CC#N)CN(C(=O)CC(F)(F)F)C4)n3)n2)cn1 [TDM-180860, 2-(3-(3-(2-((1-methyl-1H-pyrazol-4-yl)amino)pyrimidin-4-yl)-1H-pyrazol-1-yl)-1-(3,3,3-trifluoropropionyl)azetidin-3-yl)acetonitrile]",0.1 to 1,0.1 to 1
"Cn1cc(Nc2nccc(-c3ccn(C4(CC#N)CN(C(=O)CC#N)C4)n3)n2)cn1 [TDM-180861, 3-(3-(cyanomethyl)-3-(3-(2-((1-methyl-1H-pyrazol-4-yl)amino)pyrimidin-4-yl)-1H-pyrazol-1-yl)azetidinpiperazin-1-yl)-3-oxypropionitrile]",1 to 10,1 to 10
"Cn1cc(Nc2nccc(-c3ccn(C4(CC#N)CN(S(=O)(=O)CC(F)(F)F)C4)c3)n2)cn1 [TDM-180866, 2-(3-(3-(2-((1-methyl-1H-pyrazol-4-yl)amino)pyrimidin-4-yl)-1H-pyrrol-1-yl)-1-((2,2,2-trifluoroethyl)sulfonyl)azetidin-3-yl)acetonitrile]",< 0.1,< 0.1
"Cn1cc(Nc2nccc(-c3ccc(C4(CC#N)CN(C(=O)CC#N)C4)cc3)n2)cn1 [TDM-180871, 3-(3-(cyanomethyl)-3-(4-(2-((1-methyl-1H-pyrazol-4-yl)amino)pyrimidin-4-yl)phenyl)azetidin-1-yl)-3-oxopropionitrile]",0.1 to 1,0.1 to 1
"Cn1cc(Nc2nccc(-c3ccc(C4(CC#N)CN(C(=O)C5CC5(F)F)C4)cc3)n2)cn1 (stereo not drawn) [TDM-180872, 2-(1-(2,2-difluorocyclo-1-carbonyl)-3-(4-(2-((1-methyl-1H-pyrazol-4-yl)amino)pyrimidin-4-yl)phenyl)azetidin-3-yl)acetonitrile]",0.1 to 1,0.1 to 1

# Next, values leading:
IC50 (Tyk2) [µM],IC50 (JAK1) [µM],SMILES
1 to 10,1 to 10,"COCC(=O)N1CC(CC#N)(n2cc(-c3ccnc(Nc4cnn(C)c4)n3)cn2)C1 [TDM-180765, 2-(1-(2-methoxyacetyl)-3-(4-(2-((1-methyl-1H-pyrazol-4-yl)amino)pyrimidin-4-yl)-1H-pyrazol-1-yl)azetidin-3-yl)acetonitrile]"
1 to 10,1 to 10,"Cn1cc(Nc2nccc(-c3cnn(C4(CC#N)CN(C(=O)CO)C4)c3)n2)cn1 [TDM-180810, 2-(1-(2-hydroxyacetyl)-3-(4-(2-((1-methyl-1H-pyrazol-4-yl)amino)pyrimidin-4-yl)-1H-pyrazol-1-yl)azetidin-3-yl)acetonitrile]"
1 to 10,1 to 10,"Cn1cc(Nc2nccc(-c3ccn(C4(CC#N)CN(C(=O)C5CC5)C4)n3)n2)cn1 [TDM-180858, 2-(1-(cyclopropanecarbonyl)-3-(3-(2-((1-methy 1-1H-pyrazol-4-yl)amino)pyrimidin-4-yl)-1H-pyrazol-1-yl)azetidinpyridin-3-yl)acetonitrile]"
0.1 to 1,0.1 to 1,"Cn1cc(Nc2nccc(-c3ccc(C4(CC#N)CN(C(=O)CC(F)(F)F)C4)cc3)n2)cn1 [TDM-180873, 2-(3-(4-(2-((1-methyl-1H-pyrazol-4-yl)amino)pyrimidin-4-yl)phenyl)-1-(3,3,3-trifluoropropanol)azetidin-3-yl)acetonitrile]"
